The source made the active and inactive calls.
What was measured:
NADPH oxidase 1 = NADPH oxidase 1 (Homo sapiens, UniProt Q9Y5S8); format: functional, cell-based;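 also: Cell-based assay with luminescence read-out, IC50 derived from inhibitor dose-response curves; intracellular ROS from endogenous NOX1 in intact HT29 colon cancer cells; potency of inhibitors that lower the ROS luminescence signal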
INS1 = test: INS-1E survival protection against cytokine death – cell-based, luminescence, retest, dose response (AID 449756); format: functional; details: Rattus norvegicus;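 also: cell death triggered by IL-1 beta plus TNF-alpha plus IFN-gamma mixture; protective hits raise ATP signal compared with cytokine alone wells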
[1] = viability of HCT116 lacking mutant beta-catenin – cell-based, human colon tumor, dose response (AID 1045); format: functional;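 also: HCT116 colon tumor cells with beta catenin knocked out; cells exposed to compound for 60 hours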
[2] = viability of PTEN-deleted HCT116 cells – cell-based, HCT116 PTEN knockout, dose response (AID 1047); format: functional;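 also: HCT116 colon tumor cells with PTEN knocked out; cells exposed to compound for 60 hours before readout; potency for loss of cell viability measured by luminescence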
[3] = NIH3T3 cell viability loss – ATP luminescence, mouse fibroblasts, counter-screen, dose response (AID 2010); format: functional, cell-based;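 also: cells exposed to compound for about 90 hours before reading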
[4] = Trypanosoma cruzi growth suppression in host cells – NIH3T3 host cells, beta-gal luminescence, confirmation (AID 2044); format: functional, cell-based;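 also: intracellular parasites grown in NIH/3T3 mouse fibroblasts as host cells; luminescent beta-galactosidase reporter signal from transgenic T. cruzi replicating inside host cells; inhibitors lower the luminescence signal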
[5] = fluconazole-exposed Candida albicans growth modulators – fluorescence, retest, confirmation (AID 2467); format: functional, cell-based
[6] = Counterscreen for AddAB inhibitors: absorbance-based bacterial cell-based high throughput dose response assay for inhibitors of bacterial viability. [Related pubchem assays (depositor defined):AID435030, AID449728, AID449731, AID488942, AID488955, AID488956]; format: functional
[7] = Luminescence Cell-Based Dose Confirmation HTS to Identify Inhibitors of Polyadenylation.; format: functional
[8] = NIH-3T3 fibroblast cytotoxicity, dose response, cytotoxicity control, cell-based, fluorescence, Alamar Blue, secondary assay (AID 2327); format: functional;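 also: NIH-3T3 mouse fibroblasts cultured with fluconazole at 8 µg/mL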
[9] = molecular target: T1, Heat shock factor protein 1 (Mus musculus, UniProt P38532); test: enhancement of HSF1-driven luciferase signal – cell-based, NIH3T3, luminescence, dose retest, confirmation (AID 435004); format: functional;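 also: stress induced by proteasome inhibitor MG132 added 30 min after compound; luciferase reporter driven by HSF1 response element in NIH3T3 cells; actives raise luminescence as potentiators of the MG132 stress response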
T1 sequence (P38532 whole entry): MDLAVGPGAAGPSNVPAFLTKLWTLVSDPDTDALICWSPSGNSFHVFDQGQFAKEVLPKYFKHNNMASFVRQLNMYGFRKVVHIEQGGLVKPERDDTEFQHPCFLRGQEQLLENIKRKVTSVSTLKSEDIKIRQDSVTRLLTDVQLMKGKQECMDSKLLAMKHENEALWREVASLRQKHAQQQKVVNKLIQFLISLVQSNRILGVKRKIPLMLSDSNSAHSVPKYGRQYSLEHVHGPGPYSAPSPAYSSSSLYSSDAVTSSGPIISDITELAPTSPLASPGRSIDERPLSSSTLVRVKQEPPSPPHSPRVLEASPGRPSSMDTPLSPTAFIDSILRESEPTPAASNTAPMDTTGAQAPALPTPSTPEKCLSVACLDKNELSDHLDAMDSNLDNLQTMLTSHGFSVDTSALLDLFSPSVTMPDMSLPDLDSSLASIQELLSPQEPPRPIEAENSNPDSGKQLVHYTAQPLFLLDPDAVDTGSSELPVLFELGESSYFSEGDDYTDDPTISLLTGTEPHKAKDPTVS

Aspartyl aminopeptidase = Aspartyl aminopeptidase (Plasmodium falciparum 3D7, UniProt Q8I2J3); test: Counterscreen for inhibitors of M1 and M17 aminopeptidases: QFRET-based biochemical high throughput dose response assay for inhibitors of the Plasmodium falciparum M18 Aspartyl Aminopeptidase (PFM18AAP). [Related PubChem assays: 1619 (Screening assay (M17LAP inhibitors).), 1445 (Screening assay (M1AAP inhibitors).)]
Sequence of Aspartyl aminopeptidase (Q8I2J3 whole entry): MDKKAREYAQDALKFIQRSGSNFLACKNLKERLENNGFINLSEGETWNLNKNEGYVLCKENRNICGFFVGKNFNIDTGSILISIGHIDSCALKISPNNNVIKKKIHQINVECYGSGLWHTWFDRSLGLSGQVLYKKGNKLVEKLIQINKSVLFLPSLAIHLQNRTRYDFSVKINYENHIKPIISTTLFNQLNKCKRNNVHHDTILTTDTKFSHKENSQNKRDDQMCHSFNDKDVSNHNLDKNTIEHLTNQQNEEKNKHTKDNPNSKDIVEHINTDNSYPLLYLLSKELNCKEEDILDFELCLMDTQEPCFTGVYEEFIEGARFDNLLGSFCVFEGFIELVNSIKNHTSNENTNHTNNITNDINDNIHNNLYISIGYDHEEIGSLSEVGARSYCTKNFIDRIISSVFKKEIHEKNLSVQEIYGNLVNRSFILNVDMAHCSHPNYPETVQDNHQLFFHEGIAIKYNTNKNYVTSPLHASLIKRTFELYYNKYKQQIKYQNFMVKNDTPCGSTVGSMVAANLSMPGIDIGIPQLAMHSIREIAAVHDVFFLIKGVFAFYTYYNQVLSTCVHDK

[10] = molecular target: T2, Replicative DNA helicase DnaB (Mycobacterium tuberculosis, UniProt P9WMR3); test: DnaB intein splicing inhibitors, dose response, biochemical, cell-free fluorescence (AID 449749); format: functional
T2 sequence (P9WMR3 whole entry): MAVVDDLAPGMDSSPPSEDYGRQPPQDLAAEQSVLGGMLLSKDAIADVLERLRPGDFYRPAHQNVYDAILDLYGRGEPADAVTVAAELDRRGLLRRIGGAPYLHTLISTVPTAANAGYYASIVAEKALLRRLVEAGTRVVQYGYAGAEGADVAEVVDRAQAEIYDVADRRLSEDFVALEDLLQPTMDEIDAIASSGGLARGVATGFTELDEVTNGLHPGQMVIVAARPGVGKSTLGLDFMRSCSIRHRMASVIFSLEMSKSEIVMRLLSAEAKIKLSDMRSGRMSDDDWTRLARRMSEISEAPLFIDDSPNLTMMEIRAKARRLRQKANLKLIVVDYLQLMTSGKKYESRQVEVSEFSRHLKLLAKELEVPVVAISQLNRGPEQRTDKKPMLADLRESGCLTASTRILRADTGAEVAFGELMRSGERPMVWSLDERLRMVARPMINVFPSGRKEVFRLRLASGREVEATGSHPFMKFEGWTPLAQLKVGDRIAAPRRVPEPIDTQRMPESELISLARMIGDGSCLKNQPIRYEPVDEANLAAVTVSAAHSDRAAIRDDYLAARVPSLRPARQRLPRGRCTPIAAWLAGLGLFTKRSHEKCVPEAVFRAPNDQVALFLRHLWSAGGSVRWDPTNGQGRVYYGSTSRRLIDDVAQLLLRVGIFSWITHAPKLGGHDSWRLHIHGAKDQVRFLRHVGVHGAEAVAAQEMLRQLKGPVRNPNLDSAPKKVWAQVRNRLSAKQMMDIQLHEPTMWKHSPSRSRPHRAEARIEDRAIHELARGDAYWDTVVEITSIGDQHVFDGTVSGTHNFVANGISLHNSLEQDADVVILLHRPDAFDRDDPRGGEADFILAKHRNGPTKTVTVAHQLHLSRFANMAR

Procathepsin L = Procathepsin L (Homo sapiens, UniProt P07711); test: CTSL1 protease inhibition – biochemical, QFRET, 1536-well, counter-screen for M1/M17 aminopeptidase inhibitor project, dose response (AID 2214)
Sequence of Procathepsin L (P07711 whole entry): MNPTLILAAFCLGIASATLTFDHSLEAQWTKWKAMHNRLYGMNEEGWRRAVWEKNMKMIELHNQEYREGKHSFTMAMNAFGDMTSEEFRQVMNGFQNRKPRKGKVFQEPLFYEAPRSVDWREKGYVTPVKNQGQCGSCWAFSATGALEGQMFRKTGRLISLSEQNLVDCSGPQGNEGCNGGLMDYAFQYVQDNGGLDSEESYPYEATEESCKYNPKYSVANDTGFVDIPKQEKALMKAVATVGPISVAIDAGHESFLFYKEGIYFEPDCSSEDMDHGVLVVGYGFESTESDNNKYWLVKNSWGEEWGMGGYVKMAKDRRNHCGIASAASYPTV

Protein RecA = molecular target: T3, Protein RecA (Mycobacterium tuberculosis, UniProt P9WHJ3); test: Fluorescence Cell-Free Homogeneous Dose Retest to Identify Inhibitors of RecA-Intein Splicing Activity. [Related pubchem assays (depositor defined):AID2097, AID2223, AID489010, AID492950]; format: functional
T3 sequence (P9WHJ3 whole entry): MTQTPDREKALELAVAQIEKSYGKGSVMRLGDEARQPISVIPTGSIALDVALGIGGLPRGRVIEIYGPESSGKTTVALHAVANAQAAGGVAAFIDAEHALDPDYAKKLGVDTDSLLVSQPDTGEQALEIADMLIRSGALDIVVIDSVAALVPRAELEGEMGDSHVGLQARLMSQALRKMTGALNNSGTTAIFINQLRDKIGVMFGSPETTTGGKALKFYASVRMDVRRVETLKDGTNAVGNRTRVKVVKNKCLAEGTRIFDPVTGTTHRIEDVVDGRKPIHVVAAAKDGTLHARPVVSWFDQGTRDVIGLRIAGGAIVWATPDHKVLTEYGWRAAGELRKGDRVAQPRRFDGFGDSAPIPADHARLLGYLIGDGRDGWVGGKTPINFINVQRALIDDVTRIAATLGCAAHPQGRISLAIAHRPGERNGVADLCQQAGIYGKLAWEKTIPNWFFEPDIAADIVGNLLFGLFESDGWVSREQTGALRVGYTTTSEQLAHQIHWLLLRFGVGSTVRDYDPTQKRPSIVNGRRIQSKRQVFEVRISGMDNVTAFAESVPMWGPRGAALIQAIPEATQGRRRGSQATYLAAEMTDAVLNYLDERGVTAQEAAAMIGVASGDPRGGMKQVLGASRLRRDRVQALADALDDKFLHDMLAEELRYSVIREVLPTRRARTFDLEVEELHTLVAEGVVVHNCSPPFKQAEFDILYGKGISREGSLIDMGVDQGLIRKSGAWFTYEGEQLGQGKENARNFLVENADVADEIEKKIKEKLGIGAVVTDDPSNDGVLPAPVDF

Leucine aminopeptidase = molecular target: T4, Leucine aminopeptidase (Plasmodium falciparum 3D7, UniProt Q8IL11); test: P. falciparum M17LAP inhibitors, primary screen, biochemical, fluorogenic H-Leu-NHMec substrate, 1536-well (AID 1619); format: functional
T4 sequence (Q8IL11 whole entry): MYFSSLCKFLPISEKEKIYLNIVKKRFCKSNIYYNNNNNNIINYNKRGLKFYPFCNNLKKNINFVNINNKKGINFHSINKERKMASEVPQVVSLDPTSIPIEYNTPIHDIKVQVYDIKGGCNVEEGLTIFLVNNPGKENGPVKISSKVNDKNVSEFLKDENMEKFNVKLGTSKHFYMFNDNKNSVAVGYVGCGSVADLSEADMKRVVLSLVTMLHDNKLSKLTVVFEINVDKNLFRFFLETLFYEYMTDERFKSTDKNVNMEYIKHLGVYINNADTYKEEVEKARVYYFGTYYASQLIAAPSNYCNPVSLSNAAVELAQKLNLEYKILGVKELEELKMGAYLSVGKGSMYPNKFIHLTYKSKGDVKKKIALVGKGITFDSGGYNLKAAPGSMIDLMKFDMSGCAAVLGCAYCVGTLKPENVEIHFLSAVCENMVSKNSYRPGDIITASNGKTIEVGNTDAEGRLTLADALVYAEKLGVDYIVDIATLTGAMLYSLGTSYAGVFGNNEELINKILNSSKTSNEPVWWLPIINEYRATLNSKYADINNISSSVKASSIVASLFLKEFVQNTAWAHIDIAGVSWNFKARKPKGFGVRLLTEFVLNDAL

Sequence of NADPH oxidase 1 (Q9Y5S8 whole entry): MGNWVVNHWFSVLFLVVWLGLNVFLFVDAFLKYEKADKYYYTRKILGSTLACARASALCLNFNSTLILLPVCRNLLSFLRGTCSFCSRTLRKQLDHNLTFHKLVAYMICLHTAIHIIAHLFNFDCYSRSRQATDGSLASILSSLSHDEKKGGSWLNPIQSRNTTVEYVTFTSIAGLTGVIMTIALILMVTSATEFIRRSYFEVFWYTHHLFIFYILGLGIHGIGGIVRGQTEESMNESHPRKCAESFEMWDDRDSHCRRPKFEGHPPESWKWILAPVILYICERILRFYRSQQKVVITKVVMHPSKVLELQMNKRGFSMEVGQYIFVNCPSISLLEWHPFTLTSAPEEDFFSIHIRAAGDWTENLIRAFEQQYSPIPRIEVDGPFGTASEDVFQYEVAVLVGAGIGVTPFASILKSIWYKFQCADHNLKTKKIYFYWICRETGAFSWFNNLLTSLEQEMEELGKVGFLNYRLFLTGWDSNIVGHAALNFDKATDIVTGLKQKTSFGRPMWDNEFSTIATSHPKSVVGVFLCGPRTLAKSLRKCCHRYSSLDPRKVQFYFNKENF

COc1ccc2c(Cl)c(C(=O)Oc3ccccc3[N+](=O)[O-])sc2c1
IC50 (NADPH oxidase 1): > 17000 nM (not active)

Cc1ccc2[nH]c(/C(C#N)=C\c3ccc([N+](=O)[O-])o3)nc2c1
AC50 (INS1): 1920 nM (active) | EC50 [1]: 1040 nM (active) | EC50 [2]: 1020 nM (active) | EC50 [3]: > 60000 nM (not active) | EC50 [4]: 604 nM (active) | EC50 [5]: 387 nM (active) | IC50 [6]: > 119000 nM (inactive) | EC50 [7]: 5850 nM (active) | EC50 [8]: 3010 nM (inconclusive)

Oc1cc(-c2ccc(Cl)c(Cl)c2)[nH]n1
EC50 [9]: > 260000 nM (inactive) | IC50 (Aspartyl aminopeptidase): > 73500 nM (not active) | AC50 [10]: 2010 nM (active) | IC50 (Procathepsin L): > 59600 nM (not active) | EC50 (Protein RecA): 852 nM (active) | IC50 (Leucine aminopeptidase): < 1000 nM (active)

From ChEMBL document CHEMBL1201862, “PubChem BioAssay data set” (2004)
